16 molecules from PubChem BioAssay (NCI) can be followed below.

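Five compound concentrations were applied to cells in 96-well plates for 48 hours; endpoints were derived by simple linear interpolation of the resulting dose-response curve. GI50 is the concentration that inhibits growth by half. TGI: total growth inhibition.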

Some test systems named below: SNB-19 CNS; HCC-2998 colon; HCT-15 colon; UO-31 renal; MDA-N; UACC-62 melanoma; HT29 colon; HL-60(TB) leukemia; DU-145 prostate; SK-MEL-5 melanoma.
Test in all cases: growth of human tumour cells (NCI), 48 h

`Cc1ccc(-c2n[nH]c(=O)n2/N=C\c2ccccc2)cc1`: the TGI with SNB-19 CNS was above 100 µM; in the assay with HCC-2998 colon it was above 100 µM; in the assay on HCT-15 colon it was above 100 µM; in the assay on UO-31 renal, above 100 µM; in the assay with MDA-N, above 93.9 µM; in the assay with UACC-62 melanoma it was above 100 µM. Besides, the TGI in the assay on HT29 colon, with HL-60(TB) leukemia, in the assay with DU-145 prostate and with SK-MEL-5 melanoma was above 100 µM each time.

As to `S=C(NCc1ccccc1)N/N=C/c1ccccn1`, the TGI in the assay on SNB-19 CNS was above 100 µM; in the assay on HCC-2998 colon, above 68.5 µM; in the assay on HCT-15 colon, above 40.5 µM; in the assay on UO-31 renal, 21 µM; with MDA-N, above 100 µM; in the assay with UACC-62 melanoma it was 25.1 µM. Further, the TGI with HT29 colon is above 100 µM; in the assay with HL-60(TB) leukemia, 0.183 µM; in the assay with DU-145 prostate it was above 100 µM; in the assay with SK-MEL-5 melanoma it was above 93.6 µM.

For the molecule `NCCOCC(N)C(=O)O` (configuration not stated), the TGI with SNB-19 CNS, in the assay on HCC-2998 colon, with HCT-15 colon, in the assay with UO-31 renal, in the assay on MDA-N and in the assay on UACC-62 melanoma was above 100 µM throughout. Also, the TGI in the assay with HT29 colon, with HL-60(TB) leukemia, in the assay on DU-145 prostate and in the assay on SK-MEL-5 melanoma was above 100 µM in each case.

Take `O=[N+]([O-])c1ccc(C(Nc2ccccc2)c2ccc3cccnc3c2O)cc1` (configuration not stated): the TGI was above 100 µM in the assay on SNB-19 CNS; 97.7 µM in the assay on HCC-2998 colon; above 100 µM in the assay on HCT-15 colon; 32.3 µM in the assay on UO-31 renal; above 100 µM in the assay with MDA-N; 35.8 µM with UACC-62 melanoma. Also, the TGI in the assay with HT29 colon is above 100 µM; in the assay with HL-60(TB) leukemia, 13.4 µM; in the assay with DU-145 prostate it was above 100 µM; in the assay with SK-MEL-5 melanoma, 22.3 µM.

Turning to `c1ccc(-c2nnn(CCN3CCCCC3)n2)cc1`, the TGI in the assay with SNB-19 CNS, in the assay with HCC-2998 colon, with HCT-15 colon, in the assay with UO-31 renal, in the assay with MDA-N and with UACC-62 melanoma was above 100 µM in each case. Moreover, the TGI with HT29 colon, in the assay with HL-60(TB) leukemia, in the assay on DU-145 prostate and with SK-MEL-5 melanoma was above 100 µM in each case.

With `CCOP(=O)(OCC)C(C)(CC)NC(=O)C(C(F)(F)F)C(F)(F)F` (configuration not stated), the TGI in the assay with SNB-19 CNS, with HCC-2998 colon, in the assay with HCT-15 colon, in the assay with UO-31 renal, in the assay on MDA-N and in the assay on UACC-62 melanoma was above 100 µM throughout. For the same molecule, the TGI in the assay on HT29 colon was above 100 µM; in the assay on HL-60(TB) leukemia, 64.6 µM; in the assay on DU-145 prostate, above 100 µM; in the assay on SK-MEL-5 melanoma it was above 100 µM. For the same molecule, the figures for the GI50 in the assay with UACC-62 melanoma and in the assay with HL-60(TB) leukemia were above 100 µM and 25.8 µM, respectively.

For `COc1ccc(CCN2CCc3c(C)c(C#N)c4nc5ccccc5n4c32)cc1OC`, the TGI in the assay on SNB-19 CNS is above 100 µM; in the assay on HCC-2998 colon, above 100 µM; with HCT-15 colon, above 100 µM; in the assay with UO-31 renal, above 100 µM; in the assay with MDA-N, 43.1 µM; in the assay with UACC-62 melanoma it was 95.3 µM. Further, the TGI in the assay with HT29 colon is above 100 µM; in the assay on HL-60(TB) leukemia, above 100 µM; in the assay on DU-145 prostate it was above 100 µM; in the assay with SK-MEL-5 melanoma, 52 µM.

As for `NC1=NCC(CN2CCCC2)O1` (configuration not stated), the TGI in the assay on SNB-19 CNS, in the assay with HCC-2998 colon, in the assay on HCT-15 colon, in the assay on UO-31 renal, with MDA-N and in the assay with UACC-62 melanoma was above 100 µM each time. The TGI with HT29 colon, in the assay on HL-60(TB) leukemia, in the assay on DU-145 prostate and with SK-MEL-5 melanoma was above 100 µM each time.

Turning to `NC(=O)Cc1nc2c(=O)[nH]cnc2n1C1OC(CO)C(O)C1O` (configuration not stated), the TGI in the assay with SNB-19 CNS, in the assay on HCC-2998 colon, in the assay with HCT-15 colon, in the assay on UO-31 renal, in the assay on MDA-N and with UACC-62 melanoma was above 100 µM in each case. Besides, the TGI with HT29 colon, in the assay with HL-60(TB) leukemia, with DU-145 prostate and with SK-MEL-5 melanoma was above 100 µM each time.

For `O=C(c1ccco1)N(C(=S)OC12CC3CC(CC(C3)C1)C2)c1ccccc1`, the TGI in the assay with SNB-19 CNS is above 100 µM; in the assay with HCC-2998 colon, 72 µM; with HCT-15 colon, above 100 µM; in the assay on UO-31 renal, 98.7 µM; with MDA-N, 83.9 µM; in the assay on UACC-62 melanoma, 73.4 µM. Further, the TGI in the assay with HT29 colon was above 100 µM; in the assay with HL-60(TB) leukemia, 63.6 µM; in the assay with DU-145 prostate it was above 100 µM; in the assay on SK-MEL-5 melanoma, 35.5 µM.

For the molecule `O=C(/C=C/c1cccs1)c1ccccc1Cl`, the TGI was 28.9 µM in the assay on SNB-19 CNS; 32.2 µM in the assay with HCC-2998 colon; 33.4 µM in the assay on HCT-15 colon; 17.2 µM in the assay with UO-31 renal; 33.9 µM in the assay with MDA-N; 27.5 µM in the assay on UACC-62 melanoma. Further, the TGI in the assay on HT29 colon was 42.5 µM; in the assay on HL-60(TB) leukemia it was 30.4 µM; in the assay on DU-145 prostate, 26.4 µM; in the assay on SK-MEL-5 melanoma, 32.5 µM.

In the case of `Cc1ccc(S(=O)(=O)N(CC(O)COc2ccccc2)c2ccc(F)cc2F)cc1` (configuration not stated), the TGI came to 41.9 µM in the assay on SNB-19 CNS; 29.7 µM with HCC-2998 colon; 30.8 µM in the assay with HCT-15 colon; 26.9 µM in the assay with UO-31 renal; 29.8 µM in the assay on MDA-N; 31.9 µM in the assay on UACC-62 melanoma. The TGI with HT29 colon came to 29.4 µM; in the assay on HL-60(TB) leukemia, 57.6 µM; with DU-145 prostate, 46.9 µM; in the assay with SK-MEL-5 melanoma, 27.8 µM.

In the case of `CC(C)(C)C1CC[C@H](O)[C@H]([C@H](O)CC2CC(=O)N(c3ccccc3)C(=O)C2)C1` (some centres not stated), the TGI in the assay with SNB-19 CNS, with HCC-2998 colon, with HCT-15 colon, with UO-31 renal, with MDA-N and in the assay with UACC-62 melanoma was above 100 µM in each case. The TGI in the assay on HT29 colon, in the assay on HL-60(TB) leukemia, in the assay on DU-145 prostate and in the assay on SK-MEL-5 melanoma was above 100 µM throughout.

As to `CN(C)c1ccc(/C=C2\N=C(c3ccccc3)N(c3ccc4c(c3)Sc3cc(N5C(=O)/C(=C/c6ccc(N(C)C)cc6)N=C5c5ccccc5)ccc3N4)C2=O)cc1`, the TGI with SNB-19 CNS was 31.3 µM; in the assay on HCC-2998 colon, 37.9 µM; with HCT-15 colon, above 100 µM; with UO-31 renal it was 34.8 µM; with MDA-N, above 100 µM; in the assay on UACC-62 melanoma it was 33.7 µM. In addition, the TGI is above 100 µM in the assay with HT29 colon, 61.9 µM with HL-60(TB) leukemia, 76.1 µM in the assay with DU-145 prostate and 32.1 µM in the assay with SK-MEL-5 melanoma.

In the case of `CC(C)C1(O)C(=O)N(c2c(F)c(F)c(F)c(F)c2F)C(=S)N1CCSc1ccccc1` (configuration not stated), the TGI was 31.9 µM in the assay with SNB-19 CNS; 34.8 µM with HCC-2998 colon; 33 µM in the assay with HCT-15 colon; 28.9 µM with UO-31 renal; 31.3 µM in the assay on MDA-N; 30.6 µM in the assay with UACC-62 melanoma. Moreover, the TGI in the assay on HT29 colon was determined as 32.5 µM; in the assay on HL-60(TB) leukemia, 29.2 µM; in the assay with DU-145 prostate, 30.9 µM; in the assay with SK-MEL-5 melanoma, 32.7 µM.

In the case of `CSc1ccc(/C=C2\N=C(c3ccccc3)N(/N=C/c3cc4cc(C)ccc4nc3Cl)C2=O)cc1`, the TGI with SNB-19 CNS is 43.1 µM; in the assay with HCC-2998 colon it was 35.5 µM; in the assay with HCT-15 colon it was 96.5 µM; in the assay on UO-31 renal, 33.4 µM; with MDA-N, 34.5 µM; with UACC-62 melanoma, 33.7 µM. In addition, the TGI with HT29 colon is 62.1 µM; in the assay on HL-60(TB) leukemia, 47.5 µM; in the assay with DU-145 prostate, 36 µM; in the assay on SK-MEL-5 melanoma, 32.9 µM.
